Measurements reported in article PMC11428291, “Peptide and Protein Cysteine Modification Enabled by Hydrosulfuration of Ynamide” (ACS Central Science, 2024).
Values belong to the molecule of their own block, whether it stands above or below them.

Key:
[1] = Water solubility of ynamides (qualitative); type: physicochemical; details: qualitative statement
Experimental: To this end, N-methylynetoluenesulfonamide (MYTsA, 2a), the first-generation ynamide coupling reagent for peptide synthesis,[39] was tested in our model reaction as a reference. […] Further optimization was performed to implement this chemistry under biocompatible conditions, such as aqueous media, near-neutral pH (6–8), and physiological temperature. In parallel, the poor water-solubility of 2a led to a sluggish reaction in an MeCN/phosphate buffer mixture (pH 8, 3:7), giving 3aa in 80% yield over 24 h. Enhancing the solubility by replacing the methyl group of R^2 with a 2-hydroxyethyl group (2b) led to a more efficient reaction, with an 89% yield of 3ab. […] Substituting the p-toluenesulfonyl (Ts) group of 2a with a trifluoromethylsulfonyl (triflyl, Tf, 2e) group enhanced both the solubility in water and the reaction efficiency due to its stronger electron-withdrawing ability and increased hydrophilicity. This modification facilitated the reaction to completion within 20 min in phosphate buffer with minimal MeCN (5%), yielding the product (3ae) as a single Z-isomer in 95% yield, confirmed by NMR (Z:E > 99:1; see zoom-in ^1H NMR spectra in Figure 2b and details in SI). […] This underscores the versatility of ynamide functionalization via R^2 group modification, promising broad applicability in synthesizing diverse conjugates. […]

[2] = Reaction rate study: hydrosulfuration of glutathione (GSH) to ynamide; details: pseudo-first order, ynamide 0.25 mM, GSH 2.5, 5 and 10 mM, 5% MeCN, pH 8.0, 0.2 M PBS, 37 °C, UV-Visible absorbance at 244 nm, triplicate
Experimental: In line with our proposal, the conjugation of the optimal ynamide (2e) and peptide (1a) was sensitive to pH and was sluggish under neutral conditions (pH 6–7.5, Figure S14). […] To further dissect the reaction mechanism, the reaction was carried out in the presence of different types of radical scavengers; no negative effect on the reaction efficacy was observed. In addition, the thiyl radical chemistry of ynamide was examined in aqueous medium, but no reaction was detected (see the SI for details, Schemes S15–S16).
9) Reaction Rate study of the Peptide Conjugates
HO N N OH PBS, pH = 8.0, MeCN, 37 °CHONN OH
Figure S64.Reaction Rate study of the Peptide Conjugates
The reaction between Ynamide (2e) and glutathione (GSH) was measured under pseudo- first order conditions with 10, 20 and 40 equivalents of GSH by real-time monitor of conjugate reactio n using UV-Visible absorbance at 244 nm (max absorbance wavelength for 3me). Solutions were prepared in MeCN (5%), pH 8.0, 0.2 M PBS with Ynamide (0.25 mM) and GSH (2.5 mM, 5 mM and 10 mM). Data was recorded for 2-5 min and performed in triplicate at 37 ℃. The averages of the observed rates (kobs), determined by nonlinear regression analysis of the data points were plotted against the concentration of GSH and the bimolecular rate constant k2, […]
8. Trastuzumab R eduction […]

[3] = Stability of peptide conjugate in the presence of external thiol (2-mercaptoethanol); type: physicochemical; details: conjugate 1 mM, pH 8.0 (Figure S58)
Source text: (§1) The stability of the conjugated products is of the utmost importance for developing a powerful peptide and protein modification strategy.[6] […] Moreover, the cleavage of 3ae in the presence of external thiol to regenerate the unmodified 1a, which occurred in other methods,[16b],[33a] was not detected in our hands (using 2-mercaptoethanol, Figure S58). In contrast, the iodoacetamide (IAM) peptide conjugate decomposed under the aforementioned conditions (Figures S61–S63).
7. Stability Study and Reaction Rate study of the Peptide Conjugates
1) Stability study of the peptide conjugate 3ae
Figure S56.Stability study of the peptide conjugate 3ae
2) Stability of 3ae (1 mM) in buffers at pH 2.0, pH 8.0, pH 10.0, pH 13.0 at 37 °C for
Figure S57.Stability of 3ae ( 1mM) in buffers at pH 2.0, pH 8.0,pH 10.0,pH 13.0
3) Stability of 3ae (1 mM) in the presence of external thiol ( 2- mercaptoethanol)，pH […]
(§2) Figure S58.Stability of 3ae ( 1mM) in the presence of external thiol
(§3) 4) Stability of 3ae (10 μM) when treated with large excess ((10mM H2O2 in buffer) of
Figure S59.Stability of 3ae ( 10μM) when tr eated with large excess of H 2O2 (at pH 4,

[4] = type: physicochemical; details: conjugate 10 μM, 10 mM H2O2 in buffer, pH 4, 8 and 10, 37 °C, 24 h (Figure S59)
Source text: as §1, §2, §3
Figure S59.Stability of 3ae ( 10μM) when tr eated with large excess of H 2O2 (at pH 4, […]
7) Stability of iodoacetamide labelling product (10 μM) when treated with large
excess ((10mM H2O2 in buffer)of H 2O2 (at pH 2 and 13 at 37 °C) for 24 h
Figure S62.Stability of iodoacetamide labelling product (10 μM) when treated with
large excess of H2O2 (at pH 2 and 13at 37 °C)
8) Stability of iodoacetamide labelling product (10 μM) when treated with bovine
Figure S63.Stability of iodoacetamide labelling product (10 μM) when treated with […]

Water-solubility [1]: poor
Compound: C#CN(C)S(=O)(=O)c1ccc(C)cc1 [2a, N-methylynetoluenesulfonamide]

Solubility in water relative to 2a ([1]; compared with 2a): enhanced
Compound: C#CN(CCO)S(=O)(=O)C(F)(F)F [2e]
Apparent second-order rate constant for the thiol conjugation (k2, app.) [2]: 0.2399 ± 0.002 M^–1 s^–1

Cleavage in the presence of external thiol to regenerate the unmodified 1a [3]: not detected
β-syn elimination when treated with a large excess of H2O2 [4]: did not undergo β-syn elimination
Compound: CCOC(=O)[C@H](CS/C=C\N(CCO)S(=O)(=O)C(F)(F)F)NC(=O)[C@H](C)NC(=O)OC(C)(C)C [3ae]
